The term IC50 denotes the concentration that inhibits the measured activity by half. A lower IC50 goes with greater potency. Broadly, the inhibition is the drop in the measured response relative to a control, in per cent.

The record followed here is patent US12378250B2, “Tricyclic compound as IRAK4 inhibitor” (KOREA RESEARCH INSTITUTE OF CHEMICAL TECHNOLOGY, priority 2018, dated 2025).

In one assay the target is T1, IRAK4 enzyme (Homo sapiens, UniProt Q9NWZ3).
T1 sequence (Q9NWZ3 1-460): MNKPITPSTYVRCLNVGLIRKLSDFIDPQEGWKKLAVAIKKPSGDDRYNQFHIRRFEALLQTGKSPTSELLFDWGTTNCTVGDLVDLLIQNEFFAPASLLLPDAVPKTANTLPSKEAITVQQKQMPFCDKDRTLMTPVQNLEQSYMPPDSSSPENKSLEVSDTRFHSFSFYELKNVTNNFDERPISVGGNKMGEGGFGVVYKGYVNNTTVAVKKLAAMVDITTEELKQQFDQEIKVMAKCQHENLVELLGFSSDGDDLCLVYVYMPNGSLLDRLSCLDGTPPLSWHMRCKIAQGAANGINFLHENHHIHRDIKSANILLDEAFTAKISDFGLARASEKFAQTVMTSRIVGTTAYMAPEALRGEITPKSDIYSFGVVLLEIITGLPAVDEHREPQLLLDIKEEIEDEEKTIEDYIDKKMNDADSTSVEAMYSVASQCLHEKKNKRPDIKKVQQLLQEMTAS
As to the kind of experiment: IRAK4 enzyme inhibition degree (bead-based kinase assay, peptide substrate BMKC-2, 100 μM ATP). The format is biochemical. The following applies: for inhibition at 1 µM: compound 1 μM. How it is done: 2.5 μl of a compound diluted to 4-fold of a final concentration was put into a 384-well white plate (low volume). 2.5 μl of 0.4 ng/μl IRAK4 enzyme was added thereto, and the resulting mixture was totally reacted for 10 minutes. 5 μl of a mixed liquid of a 6 μM peptide substrate (BMKC-2) and 100 μM ATP was added thereto, the resulting mixture was reacted at room temperature for 60 minutes, then 2.5 μl of 10 mM EDTA was added thereto, and the resulting mixture was reacted again for 10 minutes. 40 nM anti-phospho Thr antibody was aliquoted to 2.5 μl each, 5 μl of a mixed solution of a 160 μl/ml acceptor bead and a donor bead was added thereto, and then the resulting mixture was reacted at room temperature for 60 minutes. Fluorescence signals were measured using a bead experimental apparatus (Fusion alpha-FP Microplate Reader, Perkin Elmer Inc.).
From the detected signal, an activity inhibition rate [% inhibition degree=(the average value of a compound−the average value of a negative control)/(the average value of a positive control−the average value of a negative control)×100] was calculated, and is shown in [Table 1]. Further, a % inhibition degree of the compound at each concentration was obtained, and then a 50% inhibition concentration (IC50 value) was analyzed by a non-linear regression analysis.

For assay [1], the system named is NF-κB promoter, THP1-Lucia™ NF-κB cell line. As to the kind of experiment: NF-κB promoter inhibition, THP1-Lucia NF-κB cell line. The format is cell-based. The following applies: 100 ng/ml LPS, 24 hours, read-out: NF-κB, % inhibition degree. How it is done:
(§1) A THP1-Lucia™ NF-κB cell line (Invivogen) was used in an NF-κB inhibition experiment, and a THP1-Lucia™ ISG cell line was used in an ISG inhibition experiment. In the NF-κB inhibition experiment, cells were planted at a density of 1×10^4 cells/well in a 96-well plate, and in the ISG inhibition experiment, cells were planted at a density of 2×10^4 cells/well in a 96-well plate. The cells were treated with a compound diluted to 4-fold of a final concentration, and totally cultured for 30 minutes. NF-κB was treated with 100 ng/ml lipopolysaccharide (LPS), ISG was treated with a stimulator of 1 μg/ml Poly(dA:dT)/LyoVec, and NF-κB and ISG were cultured for 24 hours. 10 μl of a cell supernatant was taken and transferred to a 96-well plate. 50 μl of a Quanti-luc solution was aliquoted using an automatic aliquoter of a measurer (Envision Multilabel Plate Reader, Perkin Elmer, Inc.), and light emission signals were measured.

In assay [2] the test system is TNF-α secretion, peripheral blood mononuclear cells (PBMCs). In words: Suppression of TNF-α secretion in LPS-treated PBMCs (ELISA). As to conditions: PBMC, 100 ng/ml LPS, 24 hours, read-out: TNF-α, % inhibition degree. It counts as cell-based. As to the method:
(§2) Peripheral blood mononuclear cells (PBMCs) isolated from whole blood were distributed in a 96-well plate. TNF-α was aliquoted at a density of 1×10^5 cells/well, IFN-α was aliquoted at a density of 2×10^5 cells/well, and TNF-α and IFN-α were treated with a compound diluted to 4-fold of a final concentration and totally cultured for 30 minutes. TNF-α was treated with 100 ng/ml lipopolysaccharide (LPS), IFN-α was treated with 500 nM ODN2216 (CpGTLR9 stimulator), and TNF-α and IFN-α were further cultured for 24 hours and 72 hours, respectively. An enzyme-linked immunosorbent assay (ELISA) was performed on TNF-α and IFN-α using an ELISA kit manufactured by BD Biosciences and an ELISA kit manufactured by PBL Assay Science, Inc., respectively. A cell supernatant and a standard drug were put into the ELISA plates and reacted for 2 hours. The plates were washed and a measurement antibody and streptavidin-HRP were sequentially added thereto. After the plates were washed, a TMB substrate was added thereto and reacted in a dark place. The reaction was stopped by adding a stop solution thereto, and the absorbance at 450 nm and 570 nm was measured using an absorber (OPTIMax tunable microplate reader, molecular devices). The experimental results are shown in [Table 2].

For assay [3], the system named is IFN-α secretion, peripheral blood mononuclear cells (PBMCs). In words: Suppression of IFN-α secretion in ODN2216-treated PBMCs (ELISA). The format is cell-based. As to conditions: PBMC, 500 nM ODN2216, 72 hours, read-out: IFN-α, % inhibition degree. As to the method: as §2
For orientation: An ELISA detects its analyte on a solid surface through an enzyme-linked reagent.

For assay [4], the system named is ISG promoter, THP1-Lucia™ ISG cell line. As to the kind of experiment: ISG promoter inhibition, THP1-Lucia ISG cell line. As to conditions: 1 μg/ml Poly(dA:dT)/LyoVec, 24 hours, read-out: ISG, % inhibition degree. The format is cell-based. As to the method: as §1

As for `COc1cncc(-c2ccc3[nH]c4nccc(N[C@H]5CC[C@H](N6CCN(S(C)(=O)=O)CC6)CC5)c4c3c2)c1` [Compound 17c], the IC50 on IRAK4 enzyme is 32.6 nM. In addition, the inhibition at 1 µM against IRAK4 enzyme was 100%; in assay [1], 53%; in assay [2], 88%; in assay [3], 99%; in assay [4], 52%. The inhibition at 0.1 µM in assay [1] worked out at 2%; in assay [2], 7%; in assay [3] it was 23%; in assay [4], 2%.

`CCOC(=O)c1ccc2[nH]c3ncnc(N[C@H]4CC[C@H](N(C)C)CC4)c3c2c1` [Compound 5bb, ethyl 4-((trans-4-(dimethylamino)cyclohexyl)amino)-9H-pyrimido[4,5-b]indole-6-carboxylate] came in with an IC50 against IRAK4 enzyme of 21 nM. Further, the inhibition at 1 µM is 83% against IRAK4 enzyme; 92% in assay [1]; 47% in assay [2]; 90% in assay [3]; 73% in assay [4]. For the same molecule, the inhibition at 0.1 µM in assay [1] came out at 58%; in assay [2] it was 7.3%; in assay [3] it was 27.3%; in assay [4], 43%.

Consider `Fc1cc(F)cc(-c2ccc3[nH]c4ncnc(N[C@H]5CC[C@H](N6CCOCC6)CC5)c4c3c2)c1` [Compound 6aal, 6-(3,5-difluorophenyl)-N-(trans-4-morpholinocyclohexyl)-9H-pyrimido[4,5-b]indole-4-amine], for which the IC50 on IRAK4 enzyme was 151 nM. The inhibition at 1 µM against IRAK4 enzyme came to 99%; in assay [1], 15%; in assay [2], 57%; in assay [3] it was 70%; in assay [4] it was 17%. For the same molecule, the inhibition at 0.1 µM in assay [1] is < 1%; in assay [2], 13%; in assay [3], 18%; in assay [4], 1%.

The molecule `CCOC(=O)c1ccc2[nH]c3ncnc(N[C@H]4CC[C@H](N5CCOCC5)CC4)c3c2c1` [Compound 5ba, ethyl 4-((trans-4-morpholinocyclohexyl)amino)-9H-pyrimido[4,5-b]indole-6-carboxylate] showed a concentration for half-maximal inhibition (IC50) at IRAK4 enzyme of 29 nM. Moreover, the inhibition at 1 µM on IRAK4 enzyme stood at 83%; in assay [1], 89%; in assay [2] it was 41.3%; in assay [3], 73.9%; in assay [4], 78%. Further, the inhibition at 0.1 µM is 48% in assay [1], 31.7% in assay [2], 27% in assay [3] and 37% in assay [4].

Turning to `Cn1cc(-c2ccc3[nH]c4ncnc(N[C@H]5CC[C@H](N6CCN(S(C)(=O)=O)CC6)CC5)c4c3c2)cn1` [Compound 6aca, 6-(1-methyl-1H-pyrazol-4-yl)-N-(trans-4-(4-(methylsulfonyl)piperazin-1-yl)cyclohexyl)-9H-pyrimido[4,5-b]indole-4-amine], on IRAK4 enzyme, the IC50 came to 13.8 nM. For the same molecule, the inhibition at 1 µM against IRAK4 enzyme was determined as 100%; in assay [1], 85%; in assay [2] it was 107%; in assay [3], 99%; in assay [4], 73%. The inhibition at 0.1 µM was determined as 28% in assay [1], 29% in assay [2], 40% in assay [3] and 23% in assay [4].

On IRAK4 enzyme, `COC(=O)c1ccc2c(c1)[nH]c1ncnc(N[C@H]3CC[C@H](N4CCOCC4)CC3)c12` [Compound 5da, methyl 4-((trans-4-morpholinocyclohexyl)amino)-9H-pyrimido[4,5-b]indole-7-carboxylate] came in with an IC50 of 128 nM. The inhibition at 1 µM against IRAK4 enzyme turned out to be 99%; in assay [1], 30%; in assay [2], 40%; in assay [3], 40%; in assay [4], 20%. In addition, the inhibition at 0.1 µM came out at 5% in assay [1], 10% in assay [2], 10% in assay [3] and 1% in assay [4].
